Laboratory results: article PMC10449621, “Engineering cellular communication between light-activated synthetic cells and bacteria” (Nature Chemical Biology, 2023)
Where “and” joins values, the source holds several entries; their conditions need not be identical. Equal values may be shown once.

What was measured:
Type in all cases: cell-based, E. coli XL10-Gold
[1] = system: BjaRS107R (B0033|ATG) receiver cells; test: IV-HSL biosynthesis by BjaI-expressing synthetic cells (GUVs), quantified with receiver cells; conditions: 10 nM IV-HSL control, Dilution -, sheet 4d
[2] = system: BjaRWT (B0033|ATG) receiver cells; test: BjaR receiver cell AHSL dose-response (gfp reporter, plate reader)
Excerpt: (§1) These findings are consistent with the predicted translation initiation rates of the respective sequences—translation from the BBa_B0033 RBS provides 1% of protein yield compared to the BBa_B0034 RBS, just as an CTG start codon provides 1% of the protein yield compared to an ATG start codon[30],[31]. This also offers support as to why the ON-state gfp expression level increased in variants with a tighter OFF-state; more cellular resources were available for GFP synthesis when comparatively fewer were allocated to BjaR synthesis. To elucidate the impact of the S107R variant on gene circuit performance, we introduced the S107R variant alone back into the bjaRWT gene, in the context of the BBa_B0033 RBS background.
(§2) In addition to quantifying how these BjaR receiver cells responded to their branched, cognate ligand, we also sought to determine whether the BjaR receiver cells could be activated by structurally dissimilar AHSLs involved in the LuxI/R, EsaI/R, LasI/R and RhlI/R QS systems previously used in synthetic cell communication[5],[7],[8]. To this end, we measured the fluorescence of BjaR receiver cells grown in the presence of their activators, 3OC6-HSL, 3OC12-HSL and C4-HSL, respectively (Supplementary Fig. 13a).
(§3) The BjaR reporter plasmids were retransformed into E. coli XL10-Gold cells for each experiment. A single colony was used to inoculate 5 ml LB + Amp media and incubated at 37 °C, 225 r.p.m. overnight. Overnight cultures were diluted 1/250 or 1/500 in 5 ml M9 minimal media + Amp and incubated at 37 °C, 225 r.p.m. for 3 h and 45 min (until OD600 = ~0.075). Cultures were diluted down to OD600 = 0.05 with M9 minimal media + Amp, and 200 µl was added to wells of a 96-well plate containing 1 µl IV-HSL dissolved in DMSO or 1 µl BjaI CFPS reactions (IV-HSL concentrations obtained from serial dilution from 63.2 µM to 632 pM; final DMSO concentration = 0.5%). Cells were incubated at 37 °C, 800 r.p.m., in a thermomixer with a heated lid for 4 h. Fluorescence and OD600 were measured in a Tecan M1000 infinite plate reader (excitation, 488 nm; emission, 510 nm; bandwidth, 5 nm; gain, 101 and z position, 21,311 µm). The dose–response curves were fitted to the function indicated by Eq. (1), where a = maximal fluorescence output, b = basal fluorescence output, X = concentration of AHSL, GFP = fluorescence at the given condition, EC50 = AHSL at 50% maximal fluorescence output and h = hill coefficient. EC50 and h were derived using the nonlinear regression model based on Eq. (1), in MATLAB. A summary of the dose–response data is available in Supplementary Table 1.1 GFP=b+a−b/1+10^logEC50−X×h

[3] = system: BjaRS107R (B0033|ATG) receiver cells; test: as above; conditions: for EC50: IV-HSL-activated gfp expression; for Mean normalised fluorescence / Normalised fluorescence / GFP: sheet 3d; for Normalised fluorescence / GFP: Expt1-3; for GFP: raw fluorescence ex 488/em 510 nm
Excerpt: as §1, §2, §3

CC(C)CC(=O)N[C@H]1CCOC1=O [IV-HSL, N-isovaleryl-L-homoserine lactone]
Mean normalised fluorescence [1]: 190979
Normalised fluorescence ([1]; Expt1-3): 175106 and 224036 and 173796
GFP ([1]; raw fluorescence ex 488/em 510 nm, Expt1-3): 33963 and 48451 and 56546
EC50 ([2]; Escherichia coli, IV-HSL-activated gfp expression): 3.93 ± 0.38 nM
hill coefficient ([2]; IV-HSL dose-response curve): 1.38
GFP ([2]; Log([ASHL]) -6.5): 47248 and 37500
Mean normalised fluorescence ([2]; Log([ASHL]) -6.5): 200159
Normalised fluorescence ([2]; Log([ASHL]) -6.5): 212521 and 200332 and 187623
Mean normalised fluorescence ([2]; Log([ASHL]) -6.5, sheet 3e): 184419
Mean normalised fluorescence ([2]; Log([ASHL]) -6.5, sheet 3d): 198983
Normalised fluorescence ([2]; Log([ASHL]) -6.5, sheet 3d, Expt1-3): 211719 and 182929
GFP ([2]; Log([ASHL]) -7): 45353 and 37555
Mean normalised fluorescence ([2]; Log([ASHL]) -7): 189629
Normalised fluorescence ([2]; Log([ASHL]) -7): 198623 and 195600 and 174664
Mean normalised fluorescence ([2]; Log([ASHL]) -7, sheet 3e): 176709
Mean normalised fluorescence ([2]; Log([ASHL]) -7, sheet 3d): 188606
Normalised fluorescence ([2]; Log([ASHL]) -7, sheet 3d, Expt1-3): 197885 and 170457
GFP ([2]; Log([ASHL]) -7.5): 45933 and 37587 and 40718
Mean normalised fluorescence ([2]; Log([ASHL]) -7.5): 182276
Normalised fluorescence ([2]; Log([ASHL]) -7.5): 179523 and 192948 and 174359
Mean normalised fluorescence ([2]; Log([ASHL]) -7.5, sheet 3e): 170191
Mean normalised fluorescence ([2]; Log([ASHL]) -7.5, sheet 3d): 181297
Normalised fluorescence ([2]; Log([ASHL]) -7.5, sheet 3d, Expt1-3): 178915 and 170205 and 194772
GFP ([2]; Log([ASHL]) -8): 37611 and 40673
Mean normalised fluorescence ([2]; Log([ASHL]) -8): 167362
Normalised fluorescence ([2]; Log([ASHL]) -8): 183805 and 164832 and 153451
Mean normalised fluorescence ([2]; Log([ASHL]) -8, sheet 3e): 154256
Mean normalised fluorescence ([2]; Log([ASHL]) -8, sheet 3d): 166513
Normalised fluorescence ([2]; Log([ASHL]) -8, sheet 3d, Expt1-3): 161111 and 185459
GFP ([2]; Log([ASHL]) -8.5): 37118 and 36825
Mean normalised fluorescence ([2]; Log([ASHL]) -8.5): 127411
Normalised fluorescence ([2]; Log([ASHL]) -8.5): 156949 and 139152 and 86132.6
Mean normalised fluorescence ([2]; Log([ASHL]) -8.5, sheet 3e): 106537
Mean normalised fluorescence ([2]; Log([ASHL]) -8.5, sheet 3d): 126734
Normalised fluorescence ([2]; Log([ASHL]) -8.5, sheet 3d, Expt1-3): 136219 and 158173
Mean normalised fluorescence ([2]; Log([ASHL]) -9): 62693.3
Mean normalised fluorescence ([2]; Log([ASHL]) -9, sheet 3e): 40066
Mean normalised fluorescence ([2]; Log([ASHL]) -9, sheet 3d): 62287.6
Mean normalised fluorescence ([2]; Log([ASHL]) -9.5): 17191.4
Mean normalised fluorescence ([2]; Log([ASHL]) -9.5, sheet 3e): 9895.56
Mean normalised fluorescence ([2]; Log([ASHL]) -9.5, sheet 3d): 17095.5
Mean normalised fluorescence ([2]; Log([ASHL]) -10): 3897.48
Mean normalised fluorescence ([2]; Log([ASHL]) -10, sheet 3e): 2635.87
Mean normalised fluorescence ([2]; Log([ASHL]) -10, sheet 3d): 3848.29
GFP ([2]; Log([ASHL]) -10.5): 559 and 459
Mean normalised fluorescence ([2]; Log([ASHL]) -10.5): 1658.33
Normalised fluorescence ([2]; Log([ASHL]) -10.5): 2009.19 and 1558.44 and 1407.36
Mean normalised fluorescence ([2]; Log([ASHL]) -10.5, sheet 3e): 1317.17
Mean normalised fluorescence ([2]; Log([ASHL]) -10.5, sheet 3d): 1623.48
Normalised fluorescence ([2]; Log([ASHL]) -10.5, sheet 3d, Expt1-3): 1531.14 and 2041.25
GFP ([2]; Log([ASHL]) -11): 433 and 333 and 432
Mean normalised fluorescence ([2]; Log([ASHL]) -11): 1322.92
Normalised fluorescence ([2]; Log([ASHL]) -11): 1515.8 and 1009.39 and 1443.57
Mean normalised fluorescence ([2]; Log([ASHL]) -11, sheet 3e): 1095.36
Mean normalised fluorescence ([2]; Log([ASHL]) -11, sheet 3d): 1289.12
Normalised fluorescence ([2]; Log([ASHL]) -11, sheet 3d, Expt1-3): 995.025 and 1544.75 and 1327.6
GFP ([2]; Log([ASHL]) -11.5): 418 and 424 and 326
Mean normalised fluorescence ([2]; Log([ASHL]) -11.5): 1299.42
Normalised fluorescence ([2]; Log([ASHL]) -11.5): 1462.99 and 1426.41 and 1008.84
Mean normalised fluorescence ([2]; Log([ASHL]) -11.5, sheet 3e): 1097.76
Mean normalised fluorescence ([2]; Log([ASHL]) -11.5, sheet 3d): 1265.1
Normalised fluorescence ([2]; Log([ASHL]) -11.5, sheet 3d, Expt1-3): 994.106 and 1309.43 and 1491.76
EC50 ([3]; Escherichia coli): 0.63 ± 0.1 nM
EC50 [3]: 0.6 nM
Mean normalised fluorescence ([3]; Log([ASHL]) -6.5): 211248
Normalised fluorescence ([3]; Log([ASHL]) -6.5): 231337 and 193994 and 208414
GFP ([3]; Log([ASHL]) -6.5): 43152 and 44129 and 37797
Mean normalised fluorescence ([3]; Log([ASHL]) -7): 191564
Normalised fluorescence ([3]; Log([ASHL]) -7): 219307 and 167549 and 187835
GFP ([3]; Log([ASHL]) -7): 41241 and 42932 and 36852
Mean normalised fluorescence ([3]; Log([ASHL]) -7.5): 185367
Normalised fluorescence ([3]; Log([ASHL]) -7.5): 205336 and 163229 and 187535
GFP ([3]; Log([ASHL]) -7.5): 40980 and 43296 and 37356
Mean normalised fluorescence ([3]; Log([ASHL]) -8): 184023
Normalised fluorescence ([3]; Log([ASHL]) -8): 162110 and 183388 and 206570
GFP ([3]; Log([ASHL]) -8): 43713 and 37962 and 41577
Mean normalised fluorescence ([3]; Log([ASHL]) -8.5): 162300
Normalised fluorescence ([3]; Log([ASHL]) -8.5): 147294 and 166971 and 172634
GFP ([3]; Log([ASHL]) -8.5): 45027 and 40097 and 44703
Mean normalised fluorescence ([3]; Log([ASHL]) -9): 128394
Normalised fluorescence ([3]; Log([ASHL]) -9): 124444 and 123486 and 137251
GFP ([3]; Log([ASHL]) -9): 38352 and 35601 and 39674
Mean normalised fluorescence ([3]; Log([ASHL]) -9.5): 61565.3
Normalised fluorescence ([3]; Log([ASHL]) -9.5): 61061.7 and 58710.4 and 64923.7
GFP ([3]; Log([ASHL]) -9.5): 18880 and 16008 and 17944
Mean normalised fluorescence ([3]; Log([ASHL]) -10): 14778.4
Normalised fluorescence ([3]; Log([ASHL]) -10): 13513.8 and 15594 and 15227.4
GFP ([3]; Log([ASHL]) -10): 4242 and 4261 and 4330
Mean normalised fluorescence ([3]; Log([ASHL]) -10.5): 3859.05
Normalised fluorescence ([3]; Log([ASHL]) -10.5): 3719.9 and 3832.44 and 4024.82
GFP ([3]; Log([ASHL]) -10.5): 1247 and 1149 and 1212
Mean normalised fluorescence ([3]; Log([ASHL]) -11): 2518.58
Normalised fluorescence ([3]; Log([ASHL]) -11): 2198.08 and 2463.87 and 2893.8
GFP ([3]; Log([ASHL]) -11): 781 and 756 and 889
Mean normalised fluorescence ([3]; Log([ASHL]) -11.5): 1640.38
Normalised fluorescence ([3]; Log([ASHL]) -11.5): 1511.18 and 1789.62 and 1620.34
GFP ([3]; Log([ASHL]) -11.5): 546 and 584 and 517
sensitivity to IV-HSL relative to BjaRWT (B0033|ATG) ([3]; more sensitive than BjaRWT (B0033|ATG)): > 6 ×
fold activation of gene expression (activation range) ([3]; with vs without IV-HSL): 135 fold
